Test results as given in patent US20220175764A1 (priority 2019, published 2022).
Entries after “also recorded” stand apart in the source; their conditions may differ.

Tests used:
DIAMOND™ mice [1] = format: in vivo; conditions: 150 mg/kg oral gavage; arm terminated early
Procedure: 8 mice gavaged with Curcumin at a dose of 150 mg/kg.
8 mice dosed from week 8 (t=8) until week 20 (t=20) on the Western Diet Sugar Water with once (1×) daily oral gavage with curcumin 150 mg/kg.

DIAMOND™ mice [2] = assay: Liver weight at necropsy (Example 2); format: in vivo, mouse; conditions: week 20
Procedure: Body weight and liver weight at time of euthanasia were recorded. Any abnormal gross anatomy signs on the body or liver would have been noted. […] The liver was processed into sections.

DIAMOND™ mice [3] = assay: Gut permeability by serum dextran competitive ELISA after 4 kDa dextran gavage, WDSW-fed DIAMOND mice (Example 1); format: in vivo, mouse; conditions: for Western Diet-induced GP (conclusion): Example 1 conclusion
Procedure: Pioglitazone was dosed at 30 mg/kg for the entire 12 weeks. Gut permeability (GP) was assessed twice at 12 weeks and 20 weeks by measuring dextran absorption into the bloodstream using a competitive enzyme-linked immunosorbent assay (ELISA) with 20 μL of serum collected by tail nick. Mice were gavaged with 4 kDa dextran at 600 mg/kg; the more permeable the gut, the more dextran is detected in serum. Results between dose groups were compared using Student's 2-tailed t-test, and pair-wise analysis was performed on serial measurements from week-12 to week-20 to assess drug impact on progression of GP over time. Serum and liver tissues were collected at necropsy, formalin-fixed, paraffin-embedded (FFPE) slides stained with H&E and Sirius Red, and liver pathology was assessed.

DIAMOND™ mice [4] = assay: Liver histology scoring, H&E and Sirius Red (Example 2); format: in vivo, mouse
Procedure: Liver samples were fixed in 10% neutral buffered formalin for 36-48 hours depending on the size of the sample before being placed into 70% alcohol. The samples were then processed into FFPE blocks. The FFPE blocks were sectioned and three (3) slides were cut per block and submitted for H&E and Sirius Red staining, and subsequent histology analysis. The samples' identity was blinded at the time of shipment for unbiased scoring.
Slide evaluation and scoring include NAS component scoring (fibrosis, steatosis grade and percentage, inflammation, ballooning), NAS score, SAF activity score, Fibrosis NASH CRN Score, Perisinusoidal Fibrosis score, and NASH category score. A histopathology sub-report is to be prepared containing scores and representative photographic images from each group.

DIAMOND™ mice [5] = assay: Leaky gut assay / Dextran Assay - gut permeability at week 12 and week 20 (Example 2); format: in vivo, mouse; conditions: for GP at week-12 compared to vehicle control (Arm-5): after 4 weeks of treatment; for GP at week-20 compared to vehicle control: after 12 weeks of treatment; for GP week-20 vs week-12: mice with data at both time points, paired t-test
Procedure: At 8 weeks on diet (t=8), mice were randomized into experimental groups based on the most recent body weight. […] Gut integrity/permeability was measured with the leaky gut assay on week 12 (one month on test article treatment) and on week 20 immediately prior to sacrifice. At each assay time point, between 0.2 ml and 0.4 ml of 4 kDa dextran solution (2 g/10 ml PBS solution, 0.2 g/mL) was orally gavaged to mice. After 4 hours, blood was collected from the tail vein and processed to serum. Dextran concentration in samples was measured by ELISA.
Gut integrity/permeability was measured with the leaky gut assay at two time points (12-week and 20-week) by competitive Dextran ELISA, 4 weeks after initial drug dosing with test article or vehicles, and immediately prior to sacrifice. Fresh fecal pellets were collected prior to each assay and placed into RNAlater and frozen (for possible future gut microbiome analysis).
• a. The leaky gut assay was performed at week 12 (one month on treatment) and immediately prior to sacrifice. • b. The procedure for the dextran was as follow: • i. 2 g of 4 kD dextran was weighed into a static free weigh dish. • ii. The dextran was mixed into a 10 ml of PBS solution. • iii. Between 0.2 ml and 0.4 ml of dextran solution was orally gavaged into mice. Each mouse staggered by 10 minutes to maintain blood dextran consistency during blood collection. • iv. 4 hours post gavage lidocaine applied to the tails of the mice in the order that they were gavaged. • v. The mice were lightly restrained in a mouse restraint device. • vi. After 5 minutes 70% alcohol was applied to a cotton swab and used to wipe off the lidocaine. • vii. Sterile scissors were used to perform a tail nick. • viii. 140 μl of whole blood was collected into a capillary tube. • ix. The capillary tubes were spun at 3,000 RPM for 8 minutes. • x. The capillary tubes were broken at the supernatant line and the serum was blown into an Eppendorf tube and snap frozen in liquid nitrogen.

DIAMOND™ mice [6] = assay: Serum lipid profile, Alere Cholestech LDX (Example 2); format: in vivo, mouse; conditions: serum at necropsy
Procedure: (§1) Lipid (total cholesterol, LDL, HDL, triglycerides, HDL calc.) and hepatic (ALB, AST, ALT, Alk, Phos, BUN, GGT, T Bil) panels were performed as described below. Due to natural variations in mice physiology extra serum might not be available to repeat testing.
40-50 microliters of thawed serum were placed into the sample well of an AL-10-991 test cassette, then the test cassette placed into the Alere Cholestech LDX blood lipid analyzer. The Alere Cholestech is FDA approved and CLIA waived for human use at POC and is used by numerous drug companies and CROs in preclinical studies because it only requires a small amount of blood. It may be used with whole blood, serum or plasma for humans, but mouse blood clots much faster and so whole blood in our experience has a higher failure rate. We therefore used serum.
Readouts were: • 1. Total cholesterol (T-chol) • 2. Triglycerides (TRIGS) (45 lower LOD) • 3. Glucose (standard range) • 4. HDL (100 upper LOD) • 5. LDL (calculated T-Chol—HDL)

DIAMOND™ mice [7] = assay: Serum LFT / hepatic panel, Abaxis VS2 (Example 2); format: in vivo, mouse; conditions: serum at necropsy
Procedure: as §1
Abaxis VS2 blood chemistry analyzers were used for measuring LFTs. This instrument is FDA approved for veterinary use, CLIA waived, and self-calibrating. It is the equivalent instrument to the Abaxis Piccolo instrument for human diagnostic testing. Phenobarbital test rotors (catalog #500-0049) were used which measure AST, ALT, ALP, GGT, ALB, and Total Bilirubin. The reactions are colorimetric, read automatically by the VS2 instrument, and results printed on a sticker which is attached to the necropsy specimen sheet and then entered into Excel. A minimum of 100 microliters of sample is needed for this test rotor, which may be either undiluted serum or diluted serum, in a ratio of 1:1 50 microliters of serum: 50 microliters of PBS without affecting accuracy of measurement of analytes. Significant hemolysis may render samples un-readable.

[8] = system: Staphylococcus, Streptococcus, Enterococcus, and Enterobacteriaceae; conditions: species of Staphylococcus; cited from earlier work
DIAMOND™ mice [9] = assay: Blood glucose and ketones from tail nick (Example 2); format: in vivo, mouse; conditions: at necropsy
Procedure: Following completion of the dosing period on t=20, the mice were placed into a clean cage and fasted for six (6) hours prior to euthanasia. Animals were euthanized by exposing them to carbon dioxide as an anesthetic followed by cardiac puncture for exsanguination. Cervical dislocation was performed as a secondary means of euthanasia. A volume of 3-5 μl of whole blood were collected from a tail nick premortem and used for glucose and ketone testing. A second volume of 300-500 μl of blood collected at euthanasia were processed to serum, aliquoted into small vials and flash frozen in liquid nitrogen for further tests including liver function and lipid tests as per study protocol. Remaining serum was stored frozen for further possible testing.
• a. Immediately prior to euthanasia a tail nick was performed. Whole blood was used to measure ketones and glucose. • b. Euthanasia—The mice were placed into a clean cage and fasted for 6 hours prior to euthanasia. Blood collection took place during euthanasia via cardiac puncture. The blood was collected into micro-serum separator tubes and processed to serum by centrifugation under 4 degrees Celsius for 15 minutes at 5,000 RMP, aliquoted in 100 μl aliquots, and serum flash frozen. Serum samples were stored frozen at −80° C. until use. […]

[10] = Results Analysis 2, Week 12, after 4 weeks of treatment
[11] = Results Analysis 2, Week 20, after 12 weeks of treatment
[12] = Results Analysis 1, pair-wise analysis
[13] = end of study, listed as Vitamin-E

COc1cc(/C=C/C(=O)CC(=O)/C=C/c2ccc(O)c(OC)c2)ccc1O [Curcumin]
mortality (DIAMOND™ mice [1]): excess mortality

C[N@+]1(CC2CC2)CC[C@]23c4c5ccc(O)c4O[C@H]2C(=O)CC[C@@]3(O)[C@H]1C5.[Br-] [MNTX, (R)-N-(cyclopropylmethyl) noroxymorphone methobromide]
liver weight vs Vehicle Control (Arm-5) (DIAMOND™ mice [2]): significantly lower liver weight
Western Diet-induced GP (conclusion) (DIAMOND™ mice [3]): dramatically improved
fold reduction of serum dextran compared to the VC group (DIAMOND™ mice [3]; Results Analysis 1, 12 week timepoint): 2.7 fold
serum dextran concentration (DIAMOND™ mice [3]; Results Analysis 1, 12 week timepoint, 4 weeks of treatment): 90.9 µg/mL
average serum dextran concentration, fold lower than the VC group (DIAMOND™ mice [3]; Results Analysis 1, 20 week timepoint, 12 weeks of treatment): 2 fold
fold reduction in mean serum dextran concentration compared with vehicle (DIAMOND™ mice [3]; Results Analysis 2, Week 12): 1.8 fold
serum dextran concentration relative to vehicle (significance) (DIAMOND™ mice [3]; Results Analysis 2, Week 12): significant reduction
mean serum dextran concentration (DIAMOND™ mice [3]; [10]): 91 µg/mL
fold reduction in mean serum dextran concentration compared with vehicle (DIAMOND™ mice [3]; Results Analysis 2, Week 20): 2.9 fold
serum dextran concentration (significance) (DIAMOND™ mice [3]; Results Analysis 2, Week 20): significant reduction
mean serum dextran concentration (DIAMOND™ mice [3]; [11]): 74.7 µg/mL
prevalence of NASH (disease category) (DIAMOND™ mice [4]; end of study): 38%
GP at week-12 compared to vehicle control (Arm-5) (DIAMOND™ mice [5]): significantly lower GP
GP at week-20 compared to vehicle control (DIAMOND™ mice [5]): persists at week-20; also recorded: significantly lower GP
GP week-20 vs week-12 (DIAMOND™ mice [5]): maintained
triglycerides vs vehicle control (Arm-5) (DIAMOND™ mice [6]): no significant effect

CCc1ccc(CCOc2ccc(CC3SC(=O)NC3=O)cc2)nc1 (centres unmarked) [Pioglitazone]
mean serum dextran concentration (DIAMOND™ mice [3]; [10]): 121 µg/mL
fold reduction in mean serum dextran concentration compared with vehicle (DIAMOND™ mice [3]; Results Analysis 2, Week 20): 3.0 fold
mean serum dextran concentration (DIAMOND™ mice [3]; [11]): 71.8 µg/mL
steatosis-only (disease category) (DIAMOND™ mice [4]; end of treatment): 100%
BUN vs Vehicle control groups (Arm-5 and Arm-10) (DIAMOND™ mice [7]): significantly increased

CO[C@H]1/C=C/O[C@@]2(C)Oc3c(C)c(O)c4c(O)c(c5c(nc6cc(C)ccn65)c4c3C2=O)NC(=O)/C(C)=C\C=C\[C@H](C)[C@H](O)[C@@H](C)[C@@H](O)[C@@H](C)[C@H](OC(C)=O)[C@@H]1C [Rifaximin]
liver weight vs Vehicle Control (Arm-5) (DIAMOND™ mice [2]): did not reduce liver weight
Western Diet-induced GP (conclusion) (DIAMOND™ mice [3]): dramatically improved
serum dextran average at 20 weeks (DIAMOND™ mice [3]; [12]): 85.9 µg/mL
serum dextran, 12-week average (DIAMOND™ mice [3]; [12]): 154.0 µg/mL
improvement of leaky gut in the 8 weeks between first and second measurement (DIAMOND™ mice [3]; Results Analysis 1, week 12 to week 20): 45%
mean serum dextran concentration (DIAMOND™ mice [3]; [10]): 151 µg/mL
serum dextran concentration (significance) (DIAMOND™ mice [3]; Results Analysis 2, Week 20): significant reduction
mean serum dextran concentration (DIAMOND™ mice [3]; [11]): 81.2 µg/mL
improvement in leaky gut during the 8 weeks between assessments (DIAMOND™ mice [3]; Results Analysis 2, pair-wise, Week 12 to Week 20): 46.2%
Liver steatosis % vs control Arm-5 (DIAMOND™ mice [4]; end of study): increased; also recorded: slight increase in steatosis
BUN vs Vehicle control groups (Arm-5 and Arm-10) (DIAMOND™ mice [7]): significantly increased
GP at week-12 compared to vehicle control (Arm-5) (DIAMOND™ mice [5]): no changes
GP at week-20 compared to vehicle control (DIAMOND™ mice [5]): significantly lower GP
GP week-20 vs week-12 (DIAMOND™ mice [5]): borderline significant
triglycerides vs vehicle control (Arm-5) (DIAMOND™ mice [6]): no effect
triglycerides vs vehicle control (Arm-5) (DIAMOND™ mice [6]; listed as Arm-3): no significant effect
in vitro antibacterial activity [8]: active
Ketones blood level vs vehicle control (Arm-5) (DIAMOND™ mice [9]): slightly decreased; also recorded: decreased

Cc1c(C)c2c(c(C)c1O)CC[C@@](C)(CCC[C@H](C)CCC[C@H](C)CCCC(C)C)O2 [Vitamin E, a-tocopherol]
liver weight vs Vehicle Control (Arm-5) (DIAMOND™ mice [2]): lower
Lobular inflammation vs control Arm-5 (DIAMOND™ mice [4]; end of study): increase
NAFLD Activity Score (NAS) vs control Arm-5 (DIAMOND™ mice [4]; end of study): slight increase
Steatosis, Activity and Fibrosis (SAF) score vs control Arm-5 (DIAMOND™ mice [4]; end of study): slight increase
prevalence of NASH (disease category) (DIAMOND™ mice [4]; end of study): 38%
Lobular inflammation vs control Arm-5 (DIAMOND™ mice [4]; [13]): increased
NAFLD Activity Score (NAS) vs control Arm-5 (DIAMOND™ mice [4]; [13]): increased
Steatosis, Activity and Fibrosis (SAF) score vs control Arm-5 (DIAMOND™ mice [4]; [13]): increased
ALT vs control vehicles (DIAMOND™ mice [7]): significantly increased
AST vs control vehicles (DIAMOND™ mice [7]): significantly increased
Albumin vs vehicle control (DIAMOND™ mice [7]): lower albumin
Albumin vs vehicle control (DIAMOND™ mice [7]; listed as Vitamin-E): decreased
GP at week-12 compared to vehicle control (Arm-5) (DIAMOND™ mice [5]): no effect
GP at week-20 compared to vehicle control (DIAMOND™ mice [5]): no effect
GP week-20 vs week-12 (DIAMOND™ mice [5]): Trending upward
GP week-20 vs week-12 (DIAMOND™ mice [5]; listed as Vit. E): trends toward an increase in GP
triglycerides vs vehicle control (Arm-5) (DIAMOND™ mice [6]): no effect
triglycerides vs vehicle control (Arm-5) (DIAMOND™ mice [6]; listed as Arm-9): no significant effect
Ketones blood level vs vehicle control (Arm-5) (DIAMOND™ mice [9]): moved ketone levels up
